Laboratory results taken from patent US20240190849A1, “AMINOPYRIMIDINE COMPOUNDS AND METHODS OF THEIR USE” (TYRA BIOSCIENCES, INC., priority 2021, published 2024).

Experiments:
Settings in all cases: FGFR binding data
FGFR1 = molecular target: T1, FGFR1 (Homo sapiens, UniProt P11362); assay: Kinase binding assay (kinase-tagged T7 phage, affinity beads, qPCR readout), FGFR1
T1 construct: made in house; host or cells: E. coli derived from BL21, infected with T7 phage
Summary of the method: (§1)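 First, streptavidin beads were loaded with biotinylated ligand and blocked. Kinase, beads and compound were then shaken together for 1 hour at room temperature in SeaBlock/PBS/Tween/DTT buffer. Finally, eluted kinase was measured by qPCR and Kd fitted with Hill slope −1.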

FGFR2 = molecular target: T2, FGFR2 (Homo sapiens, UniProt P21802); assay: Kinase binding assay (kinase-tagged T7 phage, affinity beads, qPCR readout), FGFR2
T2 construct: made in house; host or cells: E. coli derived from BL21, infected with T7 phage
Summary of the method: as §1

FGFR3 (V555M) = molecular target: T3, FGFR3 (V555M) (Homo sapiens, UniProt P22607, V555M); assay: Kinase binding assay (kinase-tagged T7 phage, affinity beads, qPCR readout), FGFR3 (V555M)
T3 construct: made in house; host or cells: E. coli derived from BL21, infected with T7 phage
Summary of the method: as §1

FGFR3 = molecular target: T4, FGFR3 (Homo sapiens, UniProt P22607); assay: Kinase binding assay (kinase-tagged T7 phage, affinity beads, qPCR readout), FGFR3
T4 construct: made in house; host or cells: E. coli derived from BL21, infected with T7 phage
Summary of the method: as §1

T2 sequence (P21802 22-821): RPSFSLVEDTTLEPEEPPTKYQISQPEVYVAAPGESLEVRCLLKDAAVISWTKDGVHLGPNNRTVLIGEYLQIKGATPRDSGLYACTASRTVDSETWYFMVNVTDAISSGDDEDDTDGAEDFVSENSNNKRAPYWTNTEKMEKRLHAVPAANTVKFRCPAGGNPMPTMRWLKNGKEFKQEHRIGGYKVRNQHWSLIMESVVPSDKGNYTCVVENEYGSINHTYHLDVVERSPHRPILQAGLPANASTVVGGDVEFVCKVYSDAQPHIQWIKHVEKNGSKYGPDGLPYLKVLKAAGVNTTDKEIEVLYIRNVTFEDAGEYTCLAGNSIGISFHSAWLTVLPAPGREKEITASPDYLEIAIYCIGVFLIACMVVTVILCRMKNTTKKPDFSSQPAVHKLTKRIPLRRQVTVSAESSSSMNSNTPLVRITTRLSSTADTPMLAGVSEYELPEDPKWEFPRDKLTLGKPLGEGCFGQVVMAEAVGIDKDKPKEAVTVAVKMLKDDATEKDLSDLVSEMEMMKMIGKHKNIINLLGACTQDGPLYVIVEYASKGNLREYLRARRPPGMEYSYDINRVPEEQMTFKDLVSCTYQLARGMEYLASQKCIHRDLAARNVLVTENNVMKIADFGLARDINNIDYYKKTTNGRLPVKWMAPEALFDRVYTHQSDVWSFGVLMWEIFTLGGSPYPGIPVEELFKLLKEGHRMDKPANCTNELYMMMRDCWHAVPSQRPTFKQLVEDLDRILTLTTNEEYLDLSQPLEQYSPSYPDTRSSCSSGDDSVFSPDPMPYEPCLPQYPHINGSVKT
T3 sequence (P22607 23-806 V555M): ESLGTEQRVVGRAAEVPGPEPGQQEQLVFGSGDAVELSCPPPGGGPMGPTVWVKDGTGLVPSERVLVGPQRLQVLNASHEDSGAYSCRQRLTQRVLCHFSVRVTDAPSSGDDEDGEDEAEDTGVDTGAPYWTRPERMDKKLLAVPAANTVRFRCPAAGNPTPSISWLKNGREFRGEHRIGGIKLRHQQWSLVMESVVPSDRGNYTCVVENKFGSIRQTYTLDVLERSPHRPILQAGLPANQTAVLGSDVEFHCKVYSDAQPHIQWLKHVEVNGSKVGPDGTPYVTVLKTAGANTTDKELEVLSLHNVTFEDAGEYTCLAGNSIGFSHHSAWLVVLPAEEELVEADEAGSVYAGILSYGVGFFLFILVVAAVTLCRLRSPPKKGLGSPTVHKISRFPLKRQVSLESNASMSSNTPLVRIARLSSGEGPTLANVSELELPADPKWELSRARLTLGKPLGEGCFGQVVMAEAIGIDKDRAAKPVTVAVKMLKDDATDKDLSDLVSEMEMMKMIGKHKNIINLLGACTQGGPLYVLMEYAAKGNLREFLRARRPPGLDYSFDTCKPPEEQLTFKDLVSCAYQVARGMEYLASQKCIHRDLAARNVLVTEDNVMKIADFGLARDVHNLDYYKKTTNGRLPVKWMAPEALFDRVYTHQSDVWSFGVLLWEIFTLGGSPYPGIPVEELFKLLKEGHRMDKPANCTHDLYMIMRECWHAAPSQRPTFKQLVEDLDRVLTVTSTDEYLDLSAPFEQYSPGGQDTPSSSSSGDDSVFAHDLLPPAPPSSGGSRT
T1 sequence (P11362 22-822): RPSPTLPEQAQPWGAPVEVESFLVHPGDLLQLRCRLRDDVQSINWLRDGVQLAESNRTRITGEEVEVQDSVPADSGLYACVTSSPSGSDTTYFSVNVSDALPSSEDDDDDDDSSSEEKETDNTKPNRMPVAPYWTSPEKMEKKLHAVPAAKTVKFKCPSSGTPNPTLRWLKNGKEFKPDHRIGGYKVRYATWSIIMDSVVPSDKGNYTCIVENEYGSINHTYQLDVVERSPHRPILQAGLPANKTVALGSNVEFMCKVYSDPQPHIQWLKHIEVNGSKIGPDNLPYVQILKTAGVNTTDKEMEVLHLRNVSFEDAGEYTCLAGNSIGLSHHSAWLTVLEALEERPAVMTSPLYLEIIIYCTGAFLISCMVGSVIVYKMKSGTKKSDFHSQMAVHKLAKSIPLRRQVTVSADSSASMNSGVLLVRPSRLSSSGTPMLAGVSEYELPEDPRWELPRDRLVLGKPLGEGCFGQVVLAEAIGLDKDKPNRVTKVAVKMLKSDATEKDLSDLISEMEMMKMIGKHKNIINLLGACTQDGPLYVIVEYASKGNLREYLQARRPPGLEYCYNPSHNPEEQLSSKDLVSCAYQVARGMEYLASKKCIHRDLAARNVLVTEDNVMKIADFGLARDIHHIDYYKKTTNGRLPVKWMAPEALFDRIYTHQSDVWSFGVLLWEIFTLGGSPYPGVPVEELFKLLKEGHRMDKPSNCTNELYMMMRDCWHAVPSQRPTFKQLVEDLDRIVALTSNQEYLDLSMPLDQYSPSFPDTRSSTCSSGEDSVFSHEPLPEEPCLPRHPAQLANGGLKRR
T4 sequence (P22607 23-806): as the sequence (P22607 23-806 V555M) above, with M533V counted along it

SMILES | Kd (FGFR1) [nM] | Kd (FGFR2) [nM] | Kd (FGFR3 (V555M)) [nM] | Kd (FGFR3) [nM]
Cc1cn(-c2nc(Nc3cnn(C[C@@H](C)O)c3)ncc2F)c2ncc(NC(=O)/C=C/CN(C)C)cc12 [Example 191, (E)-4-(dimethylamino)-N-[1-[5-fluoro-2-[[1-[(2R)-2-hydroxypropyl]pyrazol-4-yl]amino]pyrimidin-4-yl]-3-methyl-pyrrolo[2,3-b]pyridin-5-yl]but-2-enamide] | 0.1 to 100 | 0.1 to 100 | 0.1 to 100 | 0.1 to 100
C=CC(=O)Nc1ccc2c(c1)c(C)cn2-c1nc(Nc2cnn(CCO)c2C)ncc1F [Example 192, N-[1-[5-fluoro-2-[[1-(2-hydroxyethyl)-5-methyl-pyrazol-4-yl]amino]pyrimidin-4-yl]-3-methyl-indol-5-yl]prop-2-enamide] | 0.1 to 100 | 0.1 to 100 | 0.1 to 100 | 0.1 to 100
C=CC(=O)Nc1ccc2c(c1)c(C)cn2-c1nc(Nc2cnn(CCOCC)c2)ncc1F [Example 193] | 0.1 to 100 | 0.1 to 100 | 0.1 to 100 | 0.1 to 100
Cc1cn(-c2nc(Nc3cnn(C[C@H](C)O)c3)ncc2F)c2ncc(NC(=O)/C=C/CN(C)C)cc12 [Example 196, (E)-4-(dimethylamino)-N-[1-[5-fluoro-2-[[1-[(2S)-2-hydroxypropyl]pyrazol-4-yl]amino]pyrimidin-4-yl]-3-methyl-pyrrolo[2,3-b]pyridin-5-yl]but-2-enamide] | 0.1 to 100 | 0.1 to 100 | 0.1 to 100 | 0.1 to 100
Cc1cn(-c2nc(Nc3cnn(C[C@@H](C)O)c3)ncc2F)c2ncc(NC(=O)/C=C/CN3CCOCC3)cc12 [Example 197, (E)-N-[1-[5-fluoro-2-[[1-[(2R)-2-hydroxypropyl]pyrazol-4-yl]amino]pyrimidin-4-yl]-3-methyl-pyrrolo[2,3-b]pyridin-5-yl]-4-morpholino-but-2-enamide] | 250 to 1000 | 250 to 1000 | 250 to 1000 | 100 to 250
Cc1cn(-c2nc(Nc3cnn(C[C@H](C)O)c3)ncc2F)c2ncc(NC(=O)/C=C/CN3CCOCC3)cc12 [Example 198, (E)-N-[1-[5-fluoro-2-[[1-[(2S)-2-hydroxypropyl]pyrazol-4-yl]amino]pyrimidin-4-yl]-3-methyl-pyrrolo[2,3-b]pyridin-5-yl]-4-morpholino-but-2-enamide] | 250 to 1000 | 100 to 250 | 250 to 1000 | 100 to 250
Cc1cn(-c2nc(Nc3cnn(C)c3C)ncc2F)c2ncc(NC(=O)/C=C/CN(C)C)cc12 [Example 199, (E)-4-(dimethylamino)-N-[1-[2-[(1,5-dimethylpyrazol-4-yl)amino]-5-fluoro-pyrimidin-4-yl]-3-methyl-pyrrolo[2,3-b]pyridin-5-yl]but-2-enamide] | 100 to 250 | 0.1 to 100 | 0.1 to 100 | 0.1 to 100
Cc1cnc(Nc2cn(C)nc2C)nc1-n1cc(C)c2cc(NC(=O)/C=C/CN(C)C)cnc21 [Example 200, (E)-4-(dimethylamino)-N-[1-[2-[(1,3-dimethylpyrazol-4-yl)amino]-5-methyl-pyrimidin-4-yl]-3-methyl-pyrrolo[2,3-b]pyridin-5-yl]but-2-enamide] | 0.1 to 100 | 0.1 to 100 | 0.1 to 100 | 0.1 to 100
C=CC(=O)Nc1ccc2c(c1)c(C)cn2-c1nc(Nc2cn(CCOC)nc2C)ncc1F [Example 202, N-[1-[5-fluoro-2-[[1-(2-methoxyethyl)-3-methyl-pyrazol-4-yl]amino]pyrimidin-4-yl]-3-methyl-indol-5-yl]prop-2-enamide] | 0.1 to 100 | 0.1 to 100 | 0.1 to 100 | 0.1 to 100
C=CC(=O)Nc1ccc2c(c1)c(C)cn2-c1nc(Nc2cnn(CCOC(C)C)c2)ncc1F [Example 203, N-[1-[5-fluoro-2-[[1-(2-isopropoxyethyl)pyrazol-4-yl]amino]pyrimidin-4-yl]-3-methyl-indol-5-yl]prop-2-enamide] | 0.1 to 100 | 0.1 to 100 | 0.1 to 100 | 0.1 to 100
C=CC(=O)Nc1ccc2c(c1)c(C)cn2-c1nc(Nc2cnn(CC(C)OC)c2)ncc1F (stereo not drawn) [Example 204, N-[1-[5-fluoro-2-[[1-(2-methoxypropyl)pyrazol-4-yl]amino]pyrimidin-4-yl]-3-methyl-indol-5-yl]prop-2-enamide] | 0.1 to 100 | 0.1 to 100 | 0.1 to 100 | 0.1 to 100
C=CC(=O)Nc1ccc2c(c1)c(C)cn2-c1nc(Nc2cnn(C[C@H](C)OC)c2)ncc1F [Example 205] | 0.1 to 100 | 0.1 to 100 | 0.1 to 100 | 0.1 to 100
C=CC(=O)Nc1ccc2c(c1)c(C)cn2-c1cc(Nc2cn(C)nc2C)nnc1C [Example 209, N-[1-[6-[(1,3-dimethylpyrazol-4-yl)amino]-3-methyl-pyridazin-4-yl]-3-methyl-indol-5-yl]prop-2-enamide] | > 1000 | > 1000 | > 1000 | > 1000
C=CC(=O)Nc1ccc2c(c1)c(C)cn2-c1nc(Nc2cnn(C[C@@H](C)OC)c2)ncc1F [Example 210, N-[1-[5-fluoro-2-[[1-[(2R)-2-methoxypropyl]pyrazol-4-yl]amino]pyrimidin-4-yl]-3-methyl-indol-5-yl]prop-2-enamide] | 0.1 to 100 | 0.1 to 100 | 0.1 to 100 | 0.1 to 100
Cc1nn(C)cc1Nc1ncc(F)c(-n2cc(C)c3cc(NC(=O)/C=C/CN4CCOCC4)cnc32)n1 [Example 213, (E)-N-[1-[2-[(1,3-dimethylpyrazol-4-yl)amino]-5-fluoro-pyrimidin-4-yl]-3-methyl-pyrrolo[2,3-b]pyridin-5-yl]-4-morpholino-but-2-enamide] | > 1000 | > 1000 | > 1000 | > 1000
C=CC(=O)Nc1ccc2c(c1)c(C)cn2-c1nc(Nc2cnn(C[C@@H](C)O)c2C)ncc1F [Example 216, N-[1-[5-fluoro-2-[[1-[(2R)-2-hydroxypropyl]-5-methyl-pyrazol-4-yl]amino]pyrimidin-4-yl]-3-methyl-indol-5-yl]prop-2-enamide] | 0.1 to 100 | 0.1 to 100 | 0.1 to 100 | 0.1 to 100
C=CC(=O)Nc1ccc2c(c1)c(C)cn2-c1ncnc(Nc2cnn(C)c2)n1 [Example 218, N-[3-methyl-1-[4-[(1-methylpyrazol-4-yl)amino]-1,3,5-triazin-2-yl]indol-5-yl]prop-2-enamide] | 0.1 to 100 | 0.1 to 100 | 0.1 to 100 | 0.1 to 100
C=CC(=O)Nc1ccc2c(c1)c(C)cn2-c1cc(Nc2cnn(C)c2)ncn1 [Example 219, N-[3-methyl-1-[6-[(1-methylpyrazol-4-yl)amino]pyrimidin-4-yl]indol-5-yl]prop-2-enamide] | > 1000 | 250 to 1000 | 250 to 1000 | 100 to 250
C=CC(=O)Nc1ccc2c(c1)c(C)cn2-c1ncnc(Nc2cn(C)nc2C)n1 [Example 220, N-[1-[4-[(1,3-dimethylpyrazol-4-yl)amino]-1,3,5-triazin-2-yl]-3-methyl-indol-5-yl]prop-2-enamide] | 250 to 1000 | 250 to 1000 | 100 to 250 | 100 to 250
C=CC(=O)Nc1ccc2c(c1)c(C)cn2-c1cc(Nc2cnn(C)c2)nnc1C [Example 221, N-[3-methyl-1-[3-methyl-6-[(1-methylpyrazol-4-yl)amino]pyridazin-4-yl]indol-5-yl]prop-2-enamide] | > 1000 | > 1000 | > 1000 | > 1000
C=CC(=O)Nc1ccc2c(c1)c(C)cn2-c1cc(Nc2cn(C)nc2C)ncn1 [Example 222, N-[1-[6-[(1,3-dimethylpyrazol-4-yl)amino]pyrimidin-4-yl]-3-methyl-indol-5-yl]prop-2-enamide] | > 1000 | > 1000 | > 1000 | > 1000
C=CC(=O)Nc1ccc2c(c1)c(C)cn2-c1cc(Nc2cnn(C)c2)ncc1C [Example 223, N-[3-methyl-1-[5-methyl-2-[(1-methylpyrazol-4-yl)amino]-4-pyridyl]indol-5-yl]prop-2-enamide] | 0.1 to 100 | 0.1 to 100 | 0.1 to 100 | 0.1 to 100
C=CC(=O)Nc1ccc2c(c1)c(C)cn2-c1cc(Nc2cn(C)nc2C)ncc1C [Example 224, N-[1-[2-[(1,3-dimethylpyrazol-4-yl)amino]-5-methyl-4-pyridyl]-3-methyl-indol-5-yl]prop-2-enamide] | 250 to 1000 | 250 to 1000 | 100 to 250 | 100 to 250
C=CC(=O)Nc1ccc2c(c1)c(C)cn2-c1nc(Nc2cn(C)nc2C)nnc1Cl [Example 225, N-[1-[6-chloro-3-[(1,3-dimethylpyrazol-4-yl)amino]-1,2,4-triazin-5-yl]-3-methyl-indol-5-yl]prop-2-enamide] | > 1000 | > 1000 | 250 to 1000 | 250 to 1000
C=CC(=O)Nc1ccc2c(c1)c(C)c(C)n2-c1nc(Nc2cnn(C)c2)ncc1F [Example 226, N-[1-[5-fluoro-2-[(1-methylpyrazol-4-yl)amino]pyrimidin-4-yl]-2,3-dimethyl-indol-5-yl]prop-2-enamide] | 0.1 to 100 | 0.1 to 100 | 0.1 to 100 | 0.1 to 100
C=CC(=O)Nc1ccc2c(c1)cc(C)n2-c1nc(Nc2cnn(C)c2)ncc1F [Example 227, N-[1-[5-fluoro-2-[(1-methylpyrazol-4-yl)amino]pyrimidin-4-yl]-2-methyl-indol-5-yl]prop-2-enamide] | 100 to 250 | 0.1 to 100 | 0.1 to 100 | 0.1 to 100
C=CC(=O)Nc1ccc2c(c1)c1ccccc1n2-c1nc(Nc2cnn(C)c2)ncc1F [Example 228, N-[9-[5-fluoro-2-[(1-methylpyrazol-4-yl)amino]pyrimidin-4-yl]carbazol-3-yl]prop-2-enamide] | 0.1 to 100 | 0.1 to 100 | > 1000 | 0.1 to 100
